Calls of active or inactive are those of the source. The calls are words filed in the database; no cut-off is given here.
Key:
[1] = Induction of H2S release in 10% PBS:MeCN solution at 5 mM incubated at 22 degC in dark condition measured at 96 hrs by 2, 6-dansyl azide probed-based fluorescence assay relative to control; conditions: buffer, 5000 µM
[2] = Induction of H2S release in 10% PBS:MeCN solution at 5 mM incubated at 37 degC in dark condition measured at 96 hrs by 0.2 mM 2, 6-dansyl azide probed-based fluorescence assay relative to control; assay type: physicochemical; conditions: buffer, 5000 µM
[3] = Induction of H2S release in 10% PBS:MeCN solution assessed as ratio of H2S level at 37 degC to H2S level at 22 degC at 5 mM incubated in dark condition measured at 96 hrs by 2, 6-dansyl azide probed-based fluorescence assay; conditions: buffer, 5000 µM
[4] = Induction of H2S release in 10% PBS:MeCN solution at 5 mM incubated at 22 degC in dark condition measured at 96 hrs by 2, 6-dansyl azide probed-based fluorescence assay relative to GYY4137; assay type: physicochemical; conditions: buffer, 5000 µM
[5] = Induction of H2S release in 10% PBS:MeCN solution at 5 mM incubated at 37 degC in dark condition measured at 96 hrs by 2, 6-dansyl azide probed-based fluorescence assay relative to GYY4137; assay type: physicochemical; conditions: buffer, 5000 µM
[6] = test system: MCF7; assay: Cytotoxicity against human MCF7 cells assessed as inhibition of cell proliferation after 4 days by crystal violet assay; assay type: functional, cell-based; conditions: MCF7, 96 h
[7] = test system: MCF7; assay: cells; assay type: functional, cell-based; conditions: Homo sapiens, MCF7, 72 h
Description: Cytotoxicity against human MCF7 cells assessed as inhibition of cell proliferation after 72 hrs by MTT assay

[8] = test system: SK-OV-3; assay: Cytotoxicity against human SKOV3 cells assessed as inhibition of cell proliferation after 4 days by crystal violet assay; assay type: functional, cell-based; conditions: SK-OV-3, 96 h
[9] = test system: MDA-MB-231; assay: cells; assay type: functional, cell-based; conditions: Homo sapiens, MDA-MB-231, 72 h
Description: Cytotoxicity against human MDA-MB-231 cells assessed as inhibition of cell proliferation after 72 hrs by MTS assay

[10] = test system: PC-3; assay: cells; assay type: functional, cell-based; conditions: Homo sapiens, PC-3, 72 h
Description: Cytotoxicity against human PC3 cells assessed as inhibition of cell proliferation after 72 hrs by MTT assay

[11] = Toxicity in human WI38 cells assessed as inhibition of cell proliferation after 4 days by crystal violet assay
[12] = Therapeutic index, ratio of IC50 for human WI38 cells to IC50 for human MCF7 cells; conditions: WI38 cells and MCF7 cells
[13] = Therapeutic index, ratio of IC50 for human WI38 cells to IC50 for human SKOV3 cells; conditions: WI38 cells and SKOV3 cells
[14] = Therapeutic index, ratio of IC50 for human WI38 cells to IC50 for human MBA-MD-231 cells; conditions: WI38 cells and MBA-MD-231 cells
[15] = Therapeutic index, ratio of IC50 for human WI38 cells to IC50 for human PC3 cells; conditions: WI38 cells and PC3 cells
[16] = Toxicity in human AC10 cells assessed as inhibition of cell proliferation at 100 uM after 24 hrs by CellTiter-Glo cell viability assay relative to control; assay type: cell-based
[17] = Effective permeability of the compound at 500 uM after 6 hrs by PAMPA; conditions: PAMPA
[18] = Effective permeability of the compound at 500 uM after 16 hrs by PAMPA
[19] = physchem; conditions: DMSO, pH 7.4
Description: Kinetic solubility of the compound in DMSO at pH 7.4 measured at 3 hrs by multiscreen filter paper-based UV absorbance analysis

[20] = physchem; conditions: DMSO, pH 7.4; remark: listed apart in the source
Description: Kinetic solubility of the compound in DMSO at pH 7.4 measured at 24 hrs by multiscreen filter paper-based UV absorbance analysis

[21] = Induction of H2S release in 10% PBS:MeCN solution at 0.5 mM incubated at 22 degC in dark condition measured at 48 hrs by 2, 6-dansyl azide probed-based fluorescence assay relative to control; assay type: physicochemical; conditions: buffer, 500 µM
[22] = Induction of H2S release in 10% PBS:MeCN solution at 0.5 mM incubated at 37 degC in dark condition measured at 48 hrs by 1 mM 2, 6-dansyl azide probed-based fluorescence assay relative to control; assay type: physicochemical; conditions: buffer, 500 µM
[23] = Induction of H2S release in 10% PBS:MeCN solution assessed as ratio of H2S level at 37 degC to H2S level at 22 degC at 0.5 mM incubated in dark condition measured at 96 hrs by 2, 6-dansyl azide probed-based fluorescence assay; assay type: physicochemical; conditions: buffer, 500 µM
[24] = Induction of H2S release in 10% PBS:MeCN solution at 0.5 mM incubated at 22 degC in dark condition measured at 48 hrs by 2, 6-dansyl azide probed-based fluorescence assay relative to 12 uM of GYY4137; assay type: physicochemical; conditions: buffer, 500 µM
[25] = Induction of H2S release in 10% PBS:MeCN solution at 0.5 mM incubated at 37 degC in dark condition measured at 48 hrs by 2, 6-dansyl azide probed-based fluorescence assay relative to 6.9 uM of GYY4137; assay type: physicochemical; conditions: buffer, 500 µM
[26] = Toxicity in transforming growth factor alpha transgenic mouse hepatocytes assessed as inhibition of cell proliferation after 24 hrs by CellTiter-Glo cell viability assay; assay type: cell-based, Hepatocyte
[27] = Toxicity in human AC10 cells assessed as inhibition of cell proliferation after 24 hrs by CellTiter-Glo cell viability assay; assay type: cell-based
[28] = Induction of H2S release in 10% PBS:MeCN solution at 1 mM incubated at 22 degC in dark condition measured at 72 hrs by 2, 6-dansyl azide probed-based fluorescence assay; assay type: physicochemical; conditions: buffer, 1000 µM
[29] = Induction of H2S release in 10% PBS:MeCN solution at 100 uM incubated at 37 degC in dark condition measured at 72 hrs by 2, 6-dansyl azide probed-based fluorescence assay; assay type: physicochemical; conditions: buffer
[30] = test system: MCF7; assay: Antitumor activity against human MCF7 tumor spheroids assessed as tumor growth inhibition at 100 uM after 14 days by inverted microscopic analysis relative to control; assay type: functional; conditions: MCF7, 336 h, read-out: TGI
[31] = test system: MCF7; assay: Antitumor activity against human MCF7 tumor spheroids assessed as tumor growth inhibition at 200 uM after 14 days by inverted microscopic analysis relative to control; assay type: functional; conditions: MCF7, 336 h, read-out: TGI
[32] = test system: MCF7; assay: Antitumor activity against human MCF7 tumor spheroids assessed as tumor growth inhibition at 400 uM after 14 days by inverted microscopic analysis relative to control; assay type: functional; conditions: MCF7, 336 h, read-out: TGI
[33] = test system: MCF7; assay: Antitumor activity against human MCF7 tumor spheroids assessed as tumor growth inhibition at 800 uM after 14 days by inverted microscopic analysis relative to control; assay type: functional; conditions: MCF7, 336 h, read-out: TGI
[34] = Induction of H2S release in 10% PBS:MeCN solution at 5 mM incubated at 37 degC in dark condition measured at 96 hrs by 1 mM 2, 6-dansyl azide probed-based fluorescence assay relative to control; conditions: buffer, 5000 µM
[35] = test system: Salmonella typhi; assay: Genotoxicity in Salmonella […] TA98 at 10 to 100 ug/plate after 48 hrs by Ames test in presence of S9 fraction; assay type: toxicity, organism-based; conditions: salmonella enterica subsp. enterica serovar […], s9, 48 h
[36] = test system: Salmonella typhi; assay: Genotoxicity in Salmonella […] TA100 at 10 to 100 ug/plate after 48 hrs by Ames test in presence of S9 fraction; assay type: toxicity, organism-based; conditions: salmonella enterica subsp. enterica serovar […], s9, 48 h
[37] = test system: Salmonella typhi; assay: Genotoxicity in Salmonella […] TA98 at 10 to 100 ug/plate after 48 hrs by Ames test in absence of S9 fraction; assay type: toxicity, organism-based; conditions: salmonella enterica subsp. enterica serovar […]
[38] = test system: Salmonella typhi; assay: Genotoxicity in Salmonella […] TA100 at 10 to 100 ug/plate after 48 hrs by Ames test in absence of S9 fraction; assay type: toxicity, organism-based; conditions: salmonella enterica subsp. enterica serovar […]
[39] = test system: MCF7; assay: Reduction of intracellular pH in human MCF7 cells at 50 uM after 48 hrs by BCECF-AM staining-based confocal microscopic analysis; assay type: functional
[40] = test system: MCF7; assay: Induction of H2S release in human MCF7 cells at 200 uM measured at 6 hrs by probe 21-based fluorescence assay; assay type: functional
[41] = Induction of H2S release in aqueous acetonitrile solution at 200 uM measured over 4 days by probe 21-based fluorescence assay; conditions: buffer, 96 h
[42] = test system: MCF7; assay: Induction of H2S release in human MCF7 cells at 400 uM measured at 6 hrs by probe 21-based fluorescence assay; assay type: functional
[43] = test system: MCF7; assay: Induction of H2S release in human MCF7 cells at 200 uM measured at 24 hrs by probe 21-based fluorescence assay; assay type: functional
[44] = test system: MCF7; assay: Induction of H2S release in human MCF7 cells at 400 uM measured at 24 hrs by probe 21-based fluorescence assay; assay type: functional
[45] = Induction of H2S release in aqueous acetonitrile solution at 400 uM measured over 4 days by probe 21-based fluorescence assay; conditions: buffer, 96 h
[46] = test system: MCF7; assay: Induction of H2S release in human MCF7 cells at 400 uM after 5 hrs by probe 21-based confocal fluorescence microscopic analysis; assay type: functional, cell-based

Row | SMILES | %max [1] [%] | Ratio [3] | fold change (FC) [4] | fold change (FC) [5] | IC50 [6] [µM] | IC50 [7] [µM] | IC50 [8] [µM] | IC50 [9] [µM] | IC50 [10] [µM] | IC50 at 4 days [11] [µM] | selectivity ratio [12] | selectivity ratio [13] | selectivity ratio [14] | selectivity ratio [15] | inhibition at 24 h, 100 µM [16] [%] | Papp at 6 h, 500 µM [17] [×10⁻⁶ cm/s] | Papp at 16 h, 500 µM [18] [×10⁻⁶ cm/s] | solubility kinetic at 3 h [19] [µg/mL] | solubility kinetic at 24 h [20] [µg/mL] | IC50 at 24 h [26] [µM] | other results
1 | C1COCCN1.CC(C)OP(=S)(S)c1ccc(Oc2ccccc2)cc1 (centres undefined) | 0.06 | 2.6 | < 0.1 | < 0.1 | 51.4 | 178 | 50.2 | 94.8 | 50.8 | 72.8 | 1.4 | 1.4 | 1.4 | 1.4 | 28.6 | 0.0066 | 0.0051 | > 400 | > 400 |  | %max [2]: 0.15%
2 | C1CSCCN1.S=P(S)(N1CCSCC1)N1CCSCC1 |  |  |  |  | 20.4 |  | 15.8 |  |  | 30.4 | 1.5 | 1.5 | 1.5 | 1.5 | 35.6 |  |  |  |  | 120 | %max [21]: 48.5%; %max [22]: 62.6%; Ratio [23]: 1.3; fold change (FC) [24]: 40; fold change (FC) [25]: 90.7
3 | S=P1(c2ccccc2)Nc2ccccc2O1 (centres undefined) |  |  |  |  | 5.7 |  | 6.12 |  |  | > 50 |  | 8.2 |  |  |  |  |  |  |  | 26.3 | IC50 at 24 h [27]: 98 µM; Activity [28]: 150 µM; Activity [29]: 77.6 µM; inhibition of growth at 100 µM [30]: 69.7%; inhibition of growth at 200 µM [31]: 75.3%; inhibition of growth at 400 µM [32]: 83.7%; inhibition of growth at 800 µM [33]: 91%
4 | NCc1ccccc1.S=P(S)(NCc1ccccc1)c1ccc(Oc2ccccc2)cc1 (centres undefined) | 1.28 | 2.2 | 0.9 | 0.5 | 36.3 | 67.6 | 47 | 55.4 | 45.6 | 104 | 1.5 | 1.5 | 1.5 | 1.5 |  | 0.19 | 0.97 | 200 | 180 | 23.5 | %max [34]: 2.81%; IC50 at 24 h [27]: 62.6 µM; Activity [35]: Non-toxic; Activity [36]: Non-toxic; Activity [37]: Non-toxic; Activity [38]: Non-toxic; pH [39]: 6.75; Activity [40]: 41.5 µM; Activity [41]: 9.03 µM; Activity [42]: 48.2 µM; Activity [43]: 93.4 µM; Activity [44]: 74.6 µM; Activity [45]: 17.19 µM; Activity [46]: Active
